Consider three molecules from patent US20070054940A1, “Remedy for down's syndrome” (EISAI CO., LTD., priority 2003, published 2007).

Structures can show the parent of a compound that is named as a salt.

One data set concerns Down's syndrome. Conditions: in vivo; cited from earlier work.
Data set [1] is described as follows: Blood concentration in the patient with rapid retrogression. Conditions: human, in vivo; 2 mg/day oral, house visit after 2 months. How it is done: It was confirmed that the subject was spontaneously getting up in the morning with extreme regularity. In addition, in daily activities the patient was sorting laundry, and before administration could not fold one piece in 30 minutes, but after administration could process 10 to 20 pieces in 10 minutes, and was approaching the level prior to the symptoms of rapid retrogression. Furthermore, the patient was able to spontaneously take medicine without the instruction of a parent. […] The blood concentration was 13.7 ng/mL.

For data set [2], the system named is human children with Down's syndrome. Conditions: 25 human children with Down's syndrome; cited from earlier work.
Data set [3] deals with Down's syndrome model mouse. Conditions: cited from earlier work.

Take `N[C@@H](Cc1c[nH]c2ccc(O)cc12)C(=O)O` [5-hydroxytryptophan]: the “Development of motor skills, language skills, intelligence, or socialization” value with Down's syndrome is recorded as “no efficacy was seen”.
As for `COc1cc2c(cc1OC)C(=O)C(CC1CCN(Cc3ccccc3)CC1)C2` (stereo not shown) [donepezil hydrochloride], the concentration at 2 months in data set [1] came to 13.7 ng/mL.
As to `NC(=O)CN1CCCC1=O` [piracetam], the Cognitive function result is given as “no improvement in cognitive function was seen” in data set [2] and “an effect in improving cognitive function was seen” in data set [3].
